Assay results as given in US20240238313A1, “DOSING OF CV-10155 IN THE EVENING OR PRIOR TO SLEEP TO TREAT GABAA DISORDERS” (priority 2021, published 2024).
“And” between values parts separate entries of the source, which are not always exact repeats. Identical values can stand only once. “Also recorded” adds a separate entry of the source. Like-named read-outs stand apart in the source and are kept apart here.

Legend:
[1] = humans, single oral dose, range of 5-135 mg
[2] = human, in vivo, 60 mg
[3] = biological target: α4β3δ GABAA receptors (extra synaptic) (Homo sapiens, UniProt P28472+P48169); conditions: compositions containing isomerically pure compound; described in U.S. Pat. No. 10,857,163; cited from earlier work
[4] = 60 mg CV-10155 orally once per day for seven days in humans (MAD): PK and adverse events
[5] = cited from earlier work
Forced swim test = Forced swim test - Depression; parameters: species or system rodent; conditions: in vivo
[6] = 60 mg, evening, fed state, N = 9
[7] = 60 mg, morning, fasted state, N = 9
[8] = 10 mg in HPMC-AS formulation PO, fed cohort, individual dogs #9-12 and mean (r14)
[9] = 10 mg in HPMC-AS formulation PO, pentagastrin/fasted cohort, individual dogs #1-4 and mean (r14)
[10] = 30 mg in HPMC-AS formulation PO, pentagastrin/fasted cohort, individual dogs #13-16 and mean (r14)

α4β3δ GABAA receptors (extra synaptic), sequence (P48169 36-554): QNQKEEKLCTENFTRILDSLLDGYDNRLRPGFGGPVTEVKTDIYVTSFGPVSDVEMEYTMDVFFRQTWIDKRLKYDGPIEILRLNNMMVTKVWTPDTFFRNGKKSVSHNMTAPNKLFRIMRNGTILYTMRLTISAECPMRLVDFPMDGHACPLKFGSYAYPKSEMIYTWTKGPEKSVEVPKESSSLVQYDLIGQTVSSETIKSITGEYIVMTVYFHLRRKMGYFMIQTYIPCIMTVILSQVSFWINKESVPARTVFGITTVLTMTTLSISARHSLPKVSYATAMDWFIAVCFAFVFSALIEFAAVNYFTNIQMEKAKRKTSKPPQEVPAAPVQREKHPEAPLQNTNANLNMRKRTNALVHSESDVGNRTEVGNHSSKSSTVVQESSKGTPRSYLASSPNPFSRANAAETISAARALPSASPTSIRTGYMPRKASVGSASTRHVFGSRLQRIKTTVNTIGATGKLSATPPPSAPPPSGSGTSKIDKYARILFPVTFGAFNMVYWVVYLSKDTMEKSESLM
α4β3δ GABAA receptors (extra synaptic), sequence (P28472 26-473): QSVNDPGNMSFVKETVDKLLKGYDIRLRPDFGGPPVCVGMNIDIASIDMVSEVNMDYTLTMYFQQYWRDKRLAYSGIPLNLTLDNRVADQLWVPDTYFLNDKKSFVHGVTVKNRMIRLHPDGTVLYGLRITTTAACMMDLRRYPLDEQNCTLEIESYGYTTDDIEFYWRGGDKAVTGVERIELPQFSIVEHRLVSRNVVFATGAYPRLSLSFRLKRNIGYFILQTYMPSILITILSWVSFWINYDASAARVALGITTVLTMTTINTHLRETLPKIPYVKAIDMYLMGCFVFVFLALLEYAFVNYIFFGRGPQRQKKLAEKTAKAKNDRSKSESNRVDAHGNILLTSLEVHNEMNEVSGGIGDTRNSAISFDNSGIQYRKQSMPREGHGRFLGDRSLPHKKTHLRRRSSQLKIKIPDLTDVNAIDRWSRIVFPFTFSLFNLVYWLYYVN
α4β3δ GABAA receptors (extra synaptic), sequence (O14764 17-452 partner limits assumed): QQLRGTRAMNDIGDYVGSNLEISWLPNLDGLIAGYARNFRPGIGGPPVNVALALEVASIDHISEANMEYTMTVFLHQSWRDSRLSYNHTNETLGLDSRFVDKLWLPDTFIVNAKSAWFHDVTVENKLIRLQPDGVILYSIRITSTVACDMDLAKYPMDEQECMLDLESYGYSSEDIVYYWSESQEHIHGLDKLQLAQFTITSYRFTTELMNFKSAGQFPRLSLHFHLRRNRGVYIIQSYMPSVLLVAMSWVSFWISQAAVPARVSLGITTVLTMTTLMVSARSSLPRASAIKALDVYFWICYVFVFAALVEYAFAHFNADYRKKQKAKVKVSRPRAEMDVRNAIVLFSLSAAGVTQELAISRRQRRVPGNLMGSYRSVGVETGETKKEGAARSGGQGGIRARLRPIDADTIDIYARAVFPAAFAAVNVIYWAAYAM

C[C@@]1(O)CC[C@@]2(C)[C@@H](CC[C@@H]3[C@@H]2CC[C@]2(C)[C@@H](C(=O)Cn4cc(C#N)cn4)CC[C@@H]32)C1 [CV-10155, 1-[2-[(3R,5S,8R,9S,10S,13S,14S,17S)-3-hydroxy-3,10,13-trimethyl-1,2,4,5,6,7,8,9,11,12,14,15,16,17-tetradecahydrocyclopenta[a]phenanthren-17-yl]-2-oxoethyl]pyrazole-4-carbonitrile]
dose-limiting adverse events [1]: No dose-limiting adverse events
Racc Cmax [2]: 1.78
preferential potentiation of α4β3δ as compared to α1β2γ2 GABAA receptors [3]: preferentially potentiate α4β3δ GABAA receptors
AE Back pain, # [4, 6]: 1
AE Bloating, # [4, 6]: 1
AE Dizziness, # [4, 6]: 1
AE Headache, # [4, 6]: 2
AE Sleepiness, # ([4]; 60 mg, evening, fed state, N = 9 (two separate table lines)): 1
AE Dizziness, # [4, 7]: 1
AE Feeling sleepy, # [4, 7]: 1
AE Feeling tired, # [4, 7]: 2
AE Headache, # [4, 7]: 2
AE Sleepiness, # [4, 7]: 9
AE Tiredness, # [4, 7]: 3
tolerability profile compared to PRAX-114 and Sage-217 ([4]; humans, 60 mg dosed in the evening): favorable tolerability profile compared to PRAX-114
exposure levels compared with 30 mg doses of Sage-217 ([4]; humans, 60 mg doses): higher exposure levels
AE ([4]; humans, CV-10155 in the evening in a fed state, individual subjects): Headache; also recorded: Somnolence; also recorded: Back pain; also recorded: Abdominal distension; also recorded: Dizziness
Severity ([4]; humans, evening, fed state, per AE of the same table row): Moderate and Mild
adverse effects interfering with sleeping ([4]; humans, oral, evening, fed subjects): does not produce adverse effects that interfere with sleeping
AUCInf [8]: 2440 ng·h/mL
AUCInf/D [8]: 5602 kg·ng·h/mL/mg and 2929 kg·ng·h/mL/mg and 2273 kg·ng·h/mL/mg and 4084 kg·ng·h/mL/mg
T1/2 [8]: 12.5 h
Tmax [8]: 1.13 h
AUCInf [9]: 2612 ng·h/mL
AUCInf/D [9]: 2762 kg·ng·h/mL/mg and 2441 kg·ng·h/mL/mg and 3314 kg·ng·h/mL/mg and 2821 kg·ng·h/mL/mg
Tmax [9]: 1.50 h
AUCInf/D [10]: 4995 kg·ng·h/mL/mg and 3157 kg·ng·h/mL/mg and 1572 kg·ng·h/mL/mg and 2982 kg·ng·h/mL/mg
T1/2 [10]: 12.3 h

C[C@@]1(O)CC[C@H]2[C@H](CC[C@@H]3[C@@H]2CC[C@]2(C)[C@@H](C(=O)Cn4cc(C#N)cn4)CC[C@@H]32)C1 [Sage-217]
Any AE, (%) ([5]; 20 mg (n-188)): 50.0%
Diarrhea, (%) ([5]; 20 mg (n-188)): 5.9%
Dizziness, (%) ([5]; 20 mg (n-188)): 7.4%
Fatigue, (%) ([5]; 20 mg (n-188)): 1.6%
Headache, (%) ([5]; 20 mg (n-188)): 11.2%
Nausea, (%) ([5]; 20 mg (n-188)): 5.3%
Sedation, (%) ([5]; 20 mg (n-188)): 5.9%
Somnolence, (%) ([5]; 20 mg (n-188)): 5.9%
Any AE, (%) ([5]; 30 mg (n-192)): 54.2%
Diarrhea, (%) ([5]; 30 mg (n-192)): 6.3%
Dizziness, (%) ([5]; 30 mg (n-192)): 5.7%
Fatigue, (%) ([5]; 30 mg (n-192)): 6.8%
Headache, (%) ([5]; 30 mg (n-192)): 6.3%
Nausea, (%) ([5]; 30 mg (n-192)): 3.6%
Sedation, (%) ([5]; 30 mg (n-192)): 4.7%
Somnolence, (%) ([5]; 30 mg (n-192)): 6.8%
Doses tested in Forced swim test - Depression (* significantly efficacious dose) (Forced swim test): 1 - 3* mg/kg
